Reference: PMC10313368 (The Journal of Clinical Investigation, 2023)
“And” between values parts separate entries of the source, which are not always exact repeats. Identical values can stand only once.

How the values were obtained:
[1] = test system: MIO-M1 cells; assay: qPCR of VEGF and ANGPTL4 mRNA in hypoxic MIO-M1 cells; format: cell-based, human; details: for Angptl4 mRNA / Vegfa mRNA: MIO-M1, 1%O2+32-134D 10μM, 20%O2 about 1, replicates, Figure 7H
Procedure: MIO-M1, HUVECs, and ARPE19 cells were cultured in DMEM with 10% (vol/vol) FBS (Quality Biological) and 1% penicillin/streptomycin (Cellgro). A hypoxic chamber (Coy Laboratory Product Inc.; Two Glove Model) with 5% CO2, 94% N2, and 1% O2 gas concentration at 37°C was used to culture hypoxic cells. The control cells were cultured in an incubator maintained at 37°C, with 21% O2 and 5% CO2. […] Aflibercept was obtained from the Johns Hopkins University Pharmacy. […]
Reverse transcription and quantitative real-time PCR. Total RNA was isolated from cultured cells or retinas with PureLinkTM RNA Mini Kit (Invitrogen #12183025), and cDNA was prepared with MuLV Reverse Transcriptase (Applied Biosystems). Quantitative real-time PCR was performed with Power SYBR Green PCR Master Mix (Applied Biosystems) and MyiQ Real-Time PCR Detection System (Bio-Rad). Normalization was done using cyclophilin A for mouse tissue and human cell lines. Primers are listed in Supplemental Table 2. […]

[2] = molecular target: HIF-2α (Homo sapiens, UniProt Q99814); assay: Immunoblot of HIF-2α accumulation in D120 hiPSC-derived retinal organoids in 1% O2; format: cell-based; parameters: endogenous in cells; details: 1% O2 12 hours, 32-134D
Sequence of HIF-2α (Q99814 whole entry): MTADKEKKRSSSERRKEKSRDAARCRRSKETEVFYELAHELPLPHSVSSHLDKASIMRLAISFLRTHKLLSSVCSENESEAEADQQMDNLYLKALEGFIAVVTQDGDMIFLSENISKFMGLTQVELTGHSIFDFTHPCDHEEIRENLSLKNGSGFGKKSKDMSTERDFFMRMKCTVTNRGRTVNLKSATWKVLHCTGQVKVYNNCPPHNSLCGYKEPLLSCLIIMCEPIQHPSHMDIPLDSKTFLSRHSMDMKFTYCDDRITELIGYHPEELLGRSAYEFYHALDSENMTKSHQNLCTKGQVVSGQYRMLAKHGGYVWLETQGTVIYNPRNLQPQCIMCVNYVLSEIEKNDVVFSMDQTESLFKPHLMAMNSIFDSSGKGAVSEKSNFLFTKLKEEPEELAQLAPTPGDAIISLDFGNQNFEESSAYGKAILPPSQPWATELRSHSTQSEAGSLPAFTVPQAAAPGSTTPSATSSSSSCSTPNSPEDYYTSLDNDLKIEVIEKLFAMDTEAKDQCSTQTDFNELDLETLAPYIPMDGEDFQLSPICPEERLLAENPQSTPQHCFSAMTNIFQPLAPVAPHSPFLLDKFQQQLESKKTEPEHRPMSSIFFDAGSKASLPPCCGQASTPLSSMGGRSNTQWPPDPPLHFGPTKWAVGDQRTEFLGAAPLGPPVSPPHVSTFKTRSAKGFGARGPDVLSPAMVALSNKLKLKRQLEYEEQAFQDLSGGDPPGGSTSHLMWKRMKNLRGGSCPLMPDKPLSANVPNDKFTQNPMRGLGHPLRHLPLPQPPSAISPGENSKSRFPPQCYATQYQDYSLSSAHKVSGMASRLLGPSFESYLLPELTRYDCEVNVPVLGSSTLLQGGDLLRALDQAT
Procedure: An hiPSC line derived from CD34^+ cord blood was used in this study (A18945, Thermo Fisher Scientific) ([70]). Undifferentiated hiPSCs and derived retinal organoids were routinely tested for mycoplasma contamination by PCR. Cell culture, retinal differentiation, and organoid formation were conducted as previously described ([71]). Retinal organoids at D120 were used for experiments.
Immunoblot assays. Cells, neurosensory retina, and D120 retinal organoid lysates were subjected
to 4–15% gradient SDS/PAGE (Invitrogen). Immunoblot (Western blot or WB) assays were
performed as previously described (1). […]

[3] = molecular target: T1, HIF-1α (Mus musculus, UniProt Q61221); assay: Western blot of HIF-1α protein accumulation in retina of OIR mice (P13); format: in vivo
T1 construct: from tissue; host or cells: retina of C57BL/6 OIR pups
T1 sequence (Q61221 whole entry): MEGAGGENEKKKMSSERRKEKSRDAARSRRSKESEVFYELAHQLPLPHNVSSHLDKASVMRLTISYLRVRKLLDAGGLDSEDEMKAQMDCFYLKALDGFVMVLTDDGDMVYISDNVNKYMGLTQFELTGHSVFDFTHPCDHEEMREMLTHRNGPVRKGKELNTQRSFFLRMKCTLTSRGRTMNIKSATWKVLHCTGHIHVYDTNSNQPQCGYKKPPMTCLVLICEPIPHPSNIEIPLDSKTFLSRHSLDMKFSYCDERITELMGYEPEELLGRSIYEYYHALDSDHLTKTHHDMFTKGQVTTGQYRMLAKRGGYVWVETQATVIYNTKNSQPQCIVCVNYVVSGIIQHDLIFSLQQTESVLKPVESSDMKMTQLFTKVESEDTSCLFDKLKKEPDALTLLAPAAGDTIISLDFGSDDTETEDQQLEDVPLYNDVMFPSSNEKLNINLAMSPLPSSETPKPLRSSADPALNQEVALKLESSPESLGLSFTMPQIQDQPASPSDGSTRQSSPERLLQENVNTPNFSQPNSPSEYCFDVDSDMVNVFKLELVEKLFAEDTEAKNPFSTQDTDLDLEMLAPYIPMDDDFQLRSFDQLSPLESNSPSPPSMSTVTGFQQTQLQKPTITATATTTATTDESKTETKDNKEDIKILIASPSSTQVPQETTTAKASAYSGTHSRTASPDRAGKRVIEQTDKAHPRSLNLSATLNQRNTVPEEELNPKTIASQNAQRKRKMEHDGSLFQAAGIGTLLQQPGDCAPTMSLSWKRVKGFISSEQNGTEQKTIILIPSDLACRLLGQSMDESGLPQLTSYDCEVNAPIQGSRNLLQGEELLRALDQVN
Procedure: Immunoblot assays. Cells, neurosensory retina, and D120 retinal organoid lysates were subjected to 4–15% gradient SDS/PAGE (Invitrogen). Immunoblot (Western blot or WB) assays were performed as previously described (1).
Reverse transcription and quantitative real-time PCR. Total RNA was isolated from cultured cells or retinas with PureLinkTM RNA Mini Kit (Invitrogen #12183025), and cDNA was prepared with MuLV Reverse Transcriptase (Applied Biosystems). Quantitative real-time PCR was performed with Power SYBR Green PCR Master Mix (Applied Biosystems) and MyiQ Real-Time PCR Detection System (Bio-Rad). Normalization was done using cyclophilin A for mouse tissue and human cell lines. Primers are listed in Supplemental Table 2.
Angiogenesis array. […]
cDNA was prepared with QuantiTect® Reverse Transcription Kit (Qiagen, Cat# 205311). […]
4444554). […] The data were analyzed by using HPRT1 as endogenous […]
HUVEC cells, Euclidean distance was used to quantify the difference in qPCR screening. The Euclidean distance was calculated using “dist” function from R’s default stat library that measures the distance between 2 vectors (i.e., total qPCR expression values in control and treatment). […]
STZ-induced diabetes mouse model. […] Blood glucose was measured on experimental day 28 after 16 hours fasting and mice with blood glucose level > 250 mg/dL were considered […]

[4] = test system: adult mice; details: i.p. 5 consecutive days, doses up to 80 mg/kg; cited from earlier work

Question: For `Brc1ccc2c(-c3csc(-c4c[nH]c5c(Br)cccc45)n3)c[nH]c2c1` [32-134D, 4-(6-bromo-1H-indol-3-yl)-2-(7-bromo-1H-indol-3-yl)thiazole], which logIC50 ([1]; Figure 12B, [Inhibitor] vs. response (three parameters), best-fit value) is on record?
Answer: The logIC50 was 0.5455.

Question: And the “Angptl4 mRNA” value ([1]; 2hrs)?
Answer: Its value is 0.3563 and 0.4262 and 0.3782.

Question: And the “Vegfa mRNA” value ([1]; 2hrs)?
Answer: The value was 1.026 and 1.073 and 1.079.

Question: And the “Angptl4 mRNA” value ([1]; 4hrs)?
Answer: The value was 1.791 and 1.687 and 2.018.

Question: And the “Vegfa mRNA” value ([1]; 4hrs)?
Answer: Its value is 1.517 and 1.493 and 1.343.

Question: What about the “Angptl4 mRNA” value ([1]; 8hrs) of the same compound?
Answer: The value was 1.385 and 1.132 and 0.993.

Question: What about the “Vegfa mRNA” value ([1]; 8hrs) of the same compound?
Answer: The value was 2.421 and 2.295 and 2.311.

Question: What about the “accumulation of HIF-2α protein” value [2] of the same compound?
Answer: Its value is “effectively prevented accumulation”.

Question: What about the “HIF-1α protein accumulation in OIR mice” value ([3]; single i.p. injection 20 mg/kg, P13) of the same compound?
Answer: Its value is “reduction”.

Question: And the “accumulation of HIF-1α in OIR mice” value ([3]; single intraocular injection 14 ng at P12, P13)?
Answer: Its value is “effectively reduced”.

Question: And the “systemic tolerability (appearance, behavior, body weight, hemoglobin, hematocrit)” value [4]?
Answer: Its value is “well tolerated”.
